Data as given in PubChem BioAssay (NCI).
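Here, GI50 denotes the concentration required for 50% inhibition of growth. TGI: concentration producing complete growth inhibition.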

Experiments:
Experiment in all cases: DTP human tumour cell line panel, 384-well format; in the data active means GI50 below about 0.43 µM; inactive means the rest
SNB-75 CNS = system: SNB-75 CNS
MALME-3M melanoma = system: MALME-3M melanoma
SK-MEL-28 melanoma = system: SK-MEL-28 melanoma
NCI/ADR-RES ovarian = system: NCI/ADR-RES ovarian
SW-620 colon = system: SW-620 colon
CAKI-1 renal = system: CAKI-1 renal
A498 renal = system: A498 renal
OVCAR-4 ovarian = system: OVCAR-4 ovarian
MDA-MB-435 melanoma = system: MDA-MB-435 melanoma
MOLT-4 leukemia = system: MOLT-4 leukemia
A549 NSCLC = system: A549 NSCLC
OVCAR-8 ovarian = system: OVCAR-8 ovarian
SF-539 CNS = system: SF-539 CNS
U251 glioblastoma = system: U251 glioblastoma
T-47D breast = system: T-47D breast
UACC-257 melanoma = system: UACC-257 melanoma
SNB-19 CNS = system: SNB-19 CNS
HCC-2998 colon = system: HCC-2998 colon
DU-145 prostate = system: DU-145 prostate
LOX IMVI melanoma = system: LOX IMVI melanoma
SF-268 CNS = system: SF-268 CNS
HCT-15 colon = system: HCT-15 colon
MDA-MB-231 breast = system: MDA-MB-231 breast
HCT-116 colon = system: HCT-116 colon
COLO 205 colon = system: COLO 205 colon
CCRF-CEM leukemia = system: CCRF-CEM leukemia
K-562 leukemia = system: K-562 leukemia
HOP-92 NSCLC = system: HOP-92 NSCLC
SK-OV-3 ovarian = system: SK-OV-3 ovarian
HOP-62 NSCLC = system: HOP-62 NSCLC
KM12 colon = system: KM12 colon
786-0 renal = system: 786-0 renal
OVCAR-5 ovarian = system: OVCAR-5 ovarian
M14 melanoma = system: M14 melanoma
NCI-H522 lung = system: NCI-H522 lung
NCI-H322M lung = system: NCI-H322M lung
NCI-H460 NSCLC = system: NCI-H460 NSCLC
RXF 393 renal = system: RXF 393 renal
SF-295 CNS = system: SF-295 CNS
IGROV1 ovarian = system: IGROV1 ovarian
EKVX NSCLC = system: EKVX NSCLC
MDA-MB-468 breast = system: MDA-MB-468 breast
HT29 colon = system: HT29 colon
UACC-62 melanoma = system: UACC-62 melanoma
TK-10 renal = system: TK-10 renal
SK-MEL-5 melanoma = system: SK-MEL-5 melanoma
PC-3 prostate = system: PC-3 prostate

CCS(=O)(=O)N1CCC(C(C)n2c(C)c(C(=O)NCc3c(OC)cc(C)[nH]c3=O)c3ccccc32)CC1 (centres undefined)
inactive: GI50 (SNB-75 CNS) > 100 µM | GI50 (MALME-3M melanoma) > 100 µM | GI50 (SK-MEL-28 melanoma) > 100 µM | GI50 (NCI/ADR-RES ovarian) > 100 µM | GI50 (SW-620 colon) > 100 µM | GI50 (CAKI-1 renal) > 100 µM | GI50 (A498 renal) > 100 µM | GI50 (OVCAR-4 ovarian) > 100 µM | GI50 (MDA-MB-435 melanoma) > 100 µM | GI50 (MOLT-4 leukemia) 42.4 µM | GI50 (A549 NSCLC) > 100 µM | GI50 (OVCAR-8 ovarian) > 100 µM | GI50 (SF-539 CNS) > 100 µM | GI50 (U251 glioblastoma) > 100 µM | GI50 (T-47D breast) > 64.5 µM | GI50 (UACC-257 melanoma) > 100 µM | GI50 (SNB-19 CNS) > 100 µM | GI50 (HCC-2998 colon) > 100 µM | GI50 (DU-145 prostate) > 100 µM | GI50 (LOX IMVI melanoma) > 78.6 µM | GI50 (SF-268 CNS) > 42.6 µM | GI50 (HCT-15 colon) > 100 µM | GI50 (MDA-MB-231 breast) > 100 µM | GI50 (HCT-116 colon) > 100 µM | GI50 (COLO 205 colon) > 100 µM | GI50 (CCRF-CEM leukemia) > 100 µM | GI50 (K-562 leukemia) > 100 µM | GI50 (HOP-92 NSCLC) > 100 µM | GI50 (SK-OV-3 ovarian) > 100 µM | GI50 (HOP-62 NSCLC) > 87.9 µM | GI50 (KM12 colon) > 100 µM | GI50 ([…]-0 renal) > 100 µM | GI50 (OVCAR-5 ovarian) > 100 µM | GI50 (M14 melanoma) > 100 µM | GI50 (NCI-H522 lung) > 100 µM | GI50 (NCI-H322M lung) > 100 µM | GI50 (NCI-H460 NSCLC) > 100 µM | GI50 (RXF 393 renal) > 100 µM | GI50 (SF-295 CNS) > 100 µM | GI50 (IGROV1 ovarian) > 100 µM | GI50 (EKVX NSCLC) > 100 µM | GI50 (MDA-MB-468 breast) 40 µM | GI50 (HT29 colon) > 100 µM | GI50 (UACC-62 melanoma) > 100 µM | GI50 (TK-10 renal) > 100 µM | GI50 (SK-MEL-5 melanoma) > 100 µM | GI50 (PC-3 prostate) > 100 µM
> 96.3 µM: TGI (SF-268 CNS)
> 100 µM: TGI (SNB-75 CNS) | TGI (MALME-3M melanoma) | TGI (SK-MEL-28 melanoma) | TGI (NCI/ADR-RES ovarian) | TGI (SW-620 colon) | TGI (CAKI-1 renal) | TGI (A498 renal) | TGI (OVCAR-4 ovarian) | TGI (MDA-MB-435 melanoma) | TGI (MOLT-4 leukemia) | TGI (A549 NSCLC) | TGI (OVCAR-8 ovarian) | TGI (SF-539 CNS) | TGI (U251 glioblastoma) | TGI (T-47D breast) | TGI (UACC-257 melanoma) | TGI (SNB-19 CNS) | TGI (HCC-2998 colon) | TGI (DU-145 prostate) | TGI (LOX IMVI melanoma) | TGI (HCT-15 colon) | TGI (MDA-MB-231 breast) | TGI (HCT-116 colon) | TGI (COLO 205 colon) | TGI (CCRF-CEM leukemia) | TGI (K-562 leukemia) | TGI (HOP-92 NSCLC) | TGI (SK-OV-3 ovarian) | TGI (HOP-62 NSCLC) | TGI (KM12 colon) | TGI (786-0 renal) | TGI (OVCAR-5 ovarian) | TGI (M14 melanoma) | TGI (NCI-H522 lung) | TGI (NCI-H322M lung) | TGI (NCI-H460 NSCLC) | TGI (RXF 393 renal) | TGI (SF-295 CNS) | TGI (IGROV1 ovarian) | TGI (EKVX NSCLC) | TGI (MDA-MB-468 breast) | TGI (HT29 colon) | TGI (UACC-62 melanoma) | TGI (TK-10 renal) | TGI (SK-MEL-5 melanoma) | TGI (PC-3 prostate)
